Assay results reported in patent publication US6472348B1, “Pyridone derivatives and herbicides” (Kumiai Chemical Industry Co., Ltd., priority 1996, dated 2002).

What was measured:
barnyardgrass (Ec) [1] = experiment: Test Example 1: herbicidal effects by paddy field soil treatment; assay type: in vivo; settings: 100 g of the active ingredient per 10 ares, 21st day after the application, index 0-5 of Table 47;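 note: grade of growth control; 5 = at least 90%; 4 = 70 to 90%; 3 = 50 to 70%; 2 = 30 to 50%; 1 = 10 to 30%; 0 = under 10%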
Summary of the method: (§1)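 Flooded paddy-soil pots (3 cm water) sown after puddling/leveling; treatment 100 g a.i./10 ares; greenhouse culture; herbicidal effect rated visually on a scoring scale at 21 d post-application.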

bulrush (Sc) = experiment: as above; assay type: in vivo; settings: 100 g of the active ingredient per 10 ares, 21st day after the application, index 0-5 of Table 47;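 note: grade of growth control; 5 = at least 90%; 4 = 70 to 90%; 3 = 50 to 70%; 2 = 30 to 50%; 1 = 10 to 30%; 0 = under 10%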
Summary of the method: as §1

monochoria (Mo) = experiment: as above; assay type: in vivo; settings: 100 g of the active ingredient per 10 ares, 21st day after the application, index 0-5 of Table 47;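 note: grade of growth control; 5 = at least 90%; 4 = 70 to 90%; 3 = 50 to 70%; 2 = 30 to 50%; 1 = 10 to 30%; 0 = under 10%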
Summary of the method: as §1

Digitaria ciliaris (Di) = experiment: Test Example 2: herbicidal effects by upland field soil treatment; assay type: in vivo; settings: 100 g of the active ingredient per 10 ares, evaluated on the 21st day after application;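 note: grade of growth control; 5 = at least 90%; 4 = 70 to 90%; 3 = 50 to 70%; 2 = 30 to 50%; 1 = 10 to 30%; 0 = under 10%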
Text: (§2) (Test on Herbicidal Effects by Upland Field Soil Treatment)

barnyardgrass (Ec) [2] = experiment: as above; assay type: in vivo; settings: 100 g of the active ingredient per 10 ares, evaluated on the 21st day after application
Text: as §2

[3] = tested on: common lambsquarters (Ch); experiment: as above; assay type: in vivo; settings: 100 g of the active ingredient per 10 ares, evaluated on the 21st day after application
Text: as §2

pale smartweed (Po) [4] = experiment: as above; assay type: in vivo; settings: 100 g of the active ingredient per 10 ares, evaluated on the 21st day after application
Text: as §2

rice flatsedge (Ci) [5] = experiment: as above; assay type: in vivo; settings: 100 g of the active ingredient per 10 ares, evaluated on the 21st day after application
Text: as §2

slender amaranth (Am) [6] = experiment: as above; assay type: in vivo; settings: 100 g of the active ingredient per 10 ares, evaluated on the 21st day after application
Text: as §2

Diaitaria ciliaris (Di) = experiment: Test Example 3: herbicidal effects by upland field foliage treatment; assay type: in vivo; parameters: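 grade of growth control; 5 = at least 90%; 4 = 70 to 90%; 3 = 50 to 70%; 2 = 30 to 50%; 1 = 10 to 30%; 0 = under 10%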; settings: 100 g active ingredient per 10 ares, evaluated 14th day after treatment
Summary of the method: (§3)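 Pot culture: sand, 120 cm^2 surface; seeds sown, soil-covered, greenhouse 2 weeks. Foliage treatment applied at that stage. Herbicidal effect rated by standard scale, day 14 post-treatment.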

barnyardgrass (Ec) [7] = experiment: as above; assay type: in vivo; parameters: scale not given here; settings: 100 g active ingredient per 10 ares, evaluated 14th day after treatment
Summary of the method: as §3

[8] = tested on: common lambsquarters (Ch); experiment: as above; assay type: in vivo; parameters: scale not given here; settings: 100 g active ingredient per 10 ares, evaluated 14th day after treatment
Summary of the method: as §3

pale smartweed (Po) [9] = experiment: as above; assay type: in vivo; parameters: scale not given here; settings: 100 g active ingredient per 10 ares, evaluated 14th day after treatment
Summary of the method: as §3

rice flatsedge (Ci) [10] = experiment: as above; assay type: in vivo; parameters: scale not given here; settings: 100 g active ingredient per 10 ares, evaluated 14th day after treatment
Summary of the method: as §3

slender amaranth (Am) [11] = experiment: as above; assay type: in vivo; parameters: scale not given here; settings: 100 g active ingredient per 10 ares, evaluated 14th day after treatment
Summary of the method: as §3

wheat (Tr) = experiment: Test Example 9: crop plant selectivity by upland field foliage treatment (wheat), phytotoxicity; settings: dose 1.6 g ai/10a, 14th day after treatment
Summary of the method: (§4)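 Sand-filled pot, wheat + weeds co-sown; greenhouse 2 wk, then foliage treatment; greenhouse culture continued; visual scoring of weed control and crop injury at 14 d post-treatment per grading scale.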

China jute (Ab) [12] = experiment: Test Example 9: crop plant selectivity by upland field foliage treatment (wheat), herbicidal effects; assay type: in vivo; parameters: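 grade of growth control; 5 = at least 90%; 4 = 70 to 90%; 3 = 50 to 70%; 2 = 30 to 50%; 1 = 10 to 30%; 0 = under 10%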; settings: dose 1.6 g ai/10a, 14th day after treatment
Summary of the method: as §4

[13] = tested on: common lambsquarters (Ch); experiment: as above; assay type: in vivo; parameters: scale not given here; settings: dose 1.6 g ai/10a, 14th day after treatment
Summary of the method: as §4

pale smartweed (Po) [14] = experiment: as above; assay type: in vivo; parameters: scale not given here; settings: dose 1.6 g ai/10a, 14th day after treatment
Summary of the method: as §4

slender amaranth (Am) [15] = experiment: as above; assay type: in vivo; parameters: scale not given here; settings: dose 1.6 g ai/10a, 14th day after treatment
Summary of the method: as §4

soybean (Gl) = experiment: Test Example 10: crop plant selectivity by upland field foliage treatment (soybean), phytotoxicity; settings: dose 1.6 g ai/10a, 14th day after treatment
Protocol: (§5) (Test on Crop Plant Selectivity by Upland Field Foliage Treatment)
(§6) In a plastic pot (surface area: 600 cm^2) filled with sand, soybean (Gl), pale smartweed (Po), slender amaranth (Am), common lambsquarters (Ch) and China jute (Ab) were sown and cultured in a green house for 2 weeks. […] The plants were then cultured in a green house, and the evaluation of the herbicidal effects and phytotoxicity was conducted on the 14th day after the treatment in accordance with the standards as identified in Table 47.

China jute (Ab) [16] = experiment: Test Example 10: crop plant selectivity by upland field foliage treatment (soybean), herbicidal effects; assay type: in vivo; settings: dose 1.6 g ai/10a, 14th day after treatment
Protocol: as §5, §6

[17] = tested on: common lambsquarters (Ch); experiment: as above; assay type: in vivo; settings: dose 1.6 g ai/10a, 14th day after treatment
Protocol: as §5, §6

pale smartweed (Po) [18] = experiment: as above; assay type: in vivo; settings: dose 1.6 g ai/10a, 14th day after treatment
Protocol: as §5, §6

slender amaranth (Am) [19] = experiment: as above; assay type: in vivo; settings: dose 1.6 g ai/10a, 14th day after treatment
Protocol: as §5, §6

corn (Ze) = experiment: Test Example 11: crop plant selectivity by upland field foliage treatment (corn), phytotoxicity; settings: upland field foliage treatment, dose 1.6 g ai/10a, 14th day after treatment
Summary of the method: (§7)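 Corn and the weed species were sown together in sand-filled pots and grown in a greenhouse for 2 weeks before foliar treatment. Herbicidal effect was scored on day 14 after treatment against a graded standard scale, with corn phytotoxicity scored alongside.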

China jute (Ab) [20] = experiment: Test Example 11: crop plant selectivity by upland field foliage treatment (corn), herbicidal effects; assay type: in vivo; parameters: scale not given here; settings: upland field foliage treatment (corn test), dose 1.6 g ai/10a, 14th day after treatment
Summary of the method: as §7

[21] = tested on: common lambsquarters (Ch); experiment: as above; assay type: in vivo; parameters: scale not given here; settings: upland field foliage treatment (corn test), dose 1.6 g ai/10a, 14th day after treatment
Summary of the method: as §7

pale smartweed (Po) [22] = experiment: as above; assay type: in vivo; parameters: scale not given here; settings: upland field foliage treatment (corn test), dose 1.6 g ai/10a, 14th day after treatment
Summary of the method: as §7

slender amaranth (Am) [23] = experiment: as above; assay type: in vivo; parameters: scale not given here; settings: upland field foliage treatment (corn test), dose 1.6 g ai/10a, 14th day after treatment
Summary of the method: as §7

CCCOCc1cc2c(-c3ccc(C(F)(F)F)n(C)c3=O)c(F)cc(Cl)c2o1 [Compound 4-32]
2: Phytotoxicity Tr (wheat (Tr)) | Phytotoxicity Gl (soybean (Gl)) | Phytotoxicity Ze (corn (Ze))
5: Herbicidal effects Ec (barnyardgrass (Ec) [1]) | Herbicidal effects Sc (bulrush (Sc)) | Herbicidal effects Mo (monochoria (Mo)) | Herbicidal effects Di (Digitaria ciliaris (Di)) | Herbicidal effects Ec (barnyardgrass (Ec) [2]) | Herbicidal effects Ch [3] | Herbicidal effects Po (pale smartweed (Po) [4]) | Herbicidal effects Ci (rice flatsedge (Ci) [5]) | Herbicidal effects Am (slender amaranth (Am) [6]) | Herbicidal effects Di (Diaitaria ciliaris (Di)) | Herbicidal effects Ec (barnyardgrass (Ec) [7]) | Herbicidal effects Ch [8] | Herbicidal effects Po (pale smartweed (Po) [9]) | Herbicidal effects Ci (rice flatsedge (Ci) [10]) | Herbicidal effects Am (slender amaranth (Am) [11]) | Herbicidal effects Ab (China jute (Ab) [12]) | Herbicidal effects Ch [13] | Herbicidal effects Po (pale smartweed (Po) [14]) | Herbicidal effects Am (slender amaranth (Am) [15]) | Herbicidal effects Ab (China jute (Ab) [16]) | Herbicidal effects Ch [17] | Herbicidal effects Po (pale smartweed (Po) [18]) | Herbicidal effects Am (slender amaranth (Am) [19]) | Herbicidal effects Ab (China jute (Ab) [20]) | Herbicidal effects Ch [21] | Herbicidal effects Po (pale smartweed (Po) [22]) | Herbicidal effects Am (slender amaranth (Am) [23])
